In PMC11625344, “A peptide derived from the amino terminus of leptin improves glucose metabolism and energy homeostasis in myotubes and db/db mice” (The Journal of Biological Chemistry, 2024):
Where no end group is shown, it is not given here.

Assays:
L6 myotubes [1] = assay: Mitochondrial biogenesis assay using MitoTracker red; type: cell-based, rat; conditions: 24 h incubation; rosiglitazone 10 μM; confocal microscopy, ImageJ
Procedure: Mitochondrial biogenesis was studied in L6 cells using mitochondrial stain MitoTracker CMXRos. The cells L6 was seeded in 4-chambered slide with a density of 20,000 cells per chamber. The cells were differentiated to myotubes following the protocol mentioned above. […] Following treatment with test peptides the cells were stained with MitoTracker red and Hoechst. The cells were then washed with PBS to remove the residual stains. Cells were then fixed with 4% paraformaldehyde and the slides were mounted using DPX. The slides were then imaged using confocal microscope. The excitation and emission wavelengths were fixed at 578 and 599 nm for red and 357 and […] for blue emission, respectively ([41]).

L6 myotubes [2] = assay: ATP extraction and determination; type: cell-based, rat; conditions: 24 h; rosiglitazone 10 μM; vehicle-treated control 4 μM; ATP determination kit
Procedure: Whole amount of ATP was extracted from L6-myotubes treated with leptin-1 and leptin-2 peptides and Rosiglitazone, according to the protocol mentioned in the literature ([42]). Briefly, the cells were harvested and pelleted by centrifugation. The harvested cells were incubated with 1% trichloroacetic acid and 4 mM EDTA solution for 10 min on ice for ATP extraction. The samples were centrifuged at 12,000 rpm for 10 min to pellet down the debris, and the supernatant was used for ATP determination. ATP determination was performed according to the protocol mentioned in the ATP determination kit’s manual from Thermo Fisher Scientific. Interference of trichloroacetic acid on ATP determination was avoided by 10× dilution of the sample in water.

[3] = test system: acetyl-CoA carboxylase-2 (ACC2); assay: ACC2 serine-80 phosphorylation, Western blot; type: cell-based, rat
Excerpt: (§1) In order to examine the peptide-induced activation of a protein, related to a signaling event, we have assessed its expression in the peptide-treated L6 myotubes with respect to the myotubes, not treated with the peptide and myotubes-treated with a positive control. For this purpose, we have performed Western blotting experiments by usual procedure after resolving the proteins of the whole cell lysates of L6 myotubes, treated at different experimental conditions by SDS-PAGE. Briefly describing the procedure, whole cell lysate was prepared by lysing the cells in radioimmunoprecipitation assay lysis buffer and equal amount of lysate was resolved on 10% SDS-PAGE. Resolved proteins were transferred to nitrocellulose membrane and the membrane was blocked with 5% skimmed milk solution. Incubated with specific primary (ratio of 1: 2500 of antibody to phosphate-buffered saline with Tween 20 (PBST) used for antibodies purchased from Sigma-Aldrich and Millipore, 1:1000 for antibodies purchased from Santa Cruz) and secondary antibodies (antibody concentration of 1:2000 in PBST), and the blots were developed using ChemiDoc ([34]).

db/db mice = assay: In vivo antidiabetic activity, OGTT and fasting blood glucose; design: species or system mouse; conditions: metformin 50 mg/kg i.p. on alternate days for 30 days, n = 5
Procedure: In vivo antidiabetic activity of the peptide was studied in diabetic animal model db/db mice. Male db/db mice with hyperglycemia were identified by checking their blood glucose level and selected for the study. Mice were divided into four groups, and the number of animals in each group was five. Blood glucose levels were measured using Accu-Chek glucometer and blood glucose measurement strips. The study was continued for 30 days. At the start of the study, fasting blood glucose in each animal was recorded, and OGTT was performed in each animal of all groups. To perform OGTT, the mice were fasted for 6 h, and then 30 min before oral glucose loading, the fasting blood glucose level in each mouse was recorded. After fasting of 6 h 3 g/kg body weight glucose was loaded orally and blood glucose at 0 minute was recorded simultaneously. Blood glucose was measured after every 30 min at 30, 60, 90, and 120 min after oral glucose loading. Time of oral glucose loading was considered as 0 min. After OGTT on day-1 peptide dosing was started. […] Thus 15 doses of the peptide/drug were administered in each db/db mice over a period of 30 days. On final day, OGTT was performed again with the same procedure described above. Blood sample was collected from each group for serum analysis. Mice were sacrificed by CO2 induced hypoxia. […]

IL-6 = assay: Serum IL-6 ELISA; type: in vivo, mouse; conditions: metformin-treated db/db group (50 mg/kg), 30 days
Procedure: (§2) In vivo antidiabetic activity of the peptide was studied in diabetic animal model db/db mice. Male db/db mice with hyperglycemia were identified by checking their blood glucose level and selected for the study. Mice were divided into four groups, and the number of animals in each group was five. Blood glucose levels were measured using Accu-Chek glucometer and blood glucose measurement strips. The study was continued for 30 days. At the start of the study, fasting blood glucose in each animal was recorded, and OGTT was performed in each animal of all groups. To perform OGTT, the mice were fasted for 6 h, and then 30 min before oral glucose loading, the fasting blood glucose level in each mouse was recorded. After fasting of 6 h 3 g/kg body weight glucose was loaded orally and blood glucose at 0 minute was recorded simultaneously. Blood glucose was measured after every 30 min at 30, 60, 90, and 120 min after oral glucose loading. Time of oral glucose loading was considered as 0 min. After OGTT on day-1 peptide dosing was started. Dosing of M10 peptide at 10 mg/kg and 20 mg/kg body weight was started from day one on alternate day basis through intraperitoneal route for 30 days. Thus 15 doses of the peptide/drug were administered in each db/db mice over a period of 30 days. On final day, OGTT was performed again with the same procedure described above. […]

AMPK protein = assay: AMPK activation (Thr-172 phosphorylation), Western blot; type: cell-based, rat; conditions: peptides 5 μM 3 h; metformin 50 μM 6 h; normalised to total AMPK
Excerpt: as §1

adiponectin = assay: Serum adiponectin ELISA; type: in vivo, mouse; conditions: metformin 50 mg/kg, 30 days; vs diabetic db/db control group
Procedure: as §2

TNFα = assay: Serum TNFα ELISA; type: in vivo, mouse; conditions: metformin-treated db/db group (50 mg/kg), 30 days
Procedure: as §2

GLUT4 [4] = assay: GLUT4 translocation to plasma membrane, immunocytochemistry; type: cell-based, rat; conditions: leptin-1 5 μM 3 h; insulin 100 nM 20 min; confocal imaging
Procedure: ICC analysis for GLUT4 translocation to PM was studied in L6 myotubes. L6 cells were grown and differentiated in 4-chambered slide following the protocol described above. The differentiated cells were treated with test peptide and positive control insulin for specified time period. Cells were fixed in formalin and perforated using 0.4% Triton X-100. The cells were then immunostained using anti-GLUT4 primary antibody (1:100 dilution) and incubated overnight at 4 °C. Cells were washed three times with PBST and then incubated with Alexa flour-488 tagged secondary antibody and incubated for 2 h. After 2 h, cells were again washed 5 times with PBST, and nuclear staining was performed by incubating the cells for 30 min with Hoechst nuclear stain. The cells were then again washed 3 times and the slide was mounted using DPX mounting media. Imaging of the slides was done using confocal microscope, blue range and green ranges filters were used ([34]).

IRS1 = IRS1 expression, Western blot; type: cell-based, rat; conditions: peptides 5 μM 3 h; insulin 100 nM 30 min; vs vehicle
Excerpt: as §1

L6 myotubes [5] = assay: Glucose uptake assay with 2NBDG; type: cell-based, rat
Procedure: As described earlier ([34]), glucose uptake assay was performed in L6 myotubes using 2NBDG. Briefly describing, L6 cells were seeded and differentiated to myotubes as described above. Differentiated myotubes were serum fasted for 6 h with serum free DMEM and the cells were incubated with desired concentration of leptin-1 and leptin-2 peptides for specified period. […] Following peptide treatment, the cells were incubated with 200 μM of 2NBDG for 10 min and the residual 2NBDG was removed and washed with PBS. Cells were trypsinized and collected in fluorescence activated cell sorting tube for fluorescence measurement. To estimate the uptake of fluorescent glucose analog, fluorescence of the cells from different samples was measured using fluorescence activated cell sorting Aria instrument.

AKT = AKT activation (p-AKT), Western blot; type: cell-based, rat; conditions: leptin-1 5 μM 3 h; insulin 100 nM 30 min; vs vehicle; normalised to total AKT
Excerpt: as §1

GLUT4 [6] = assay: GLUT4 translocation to plasma membrane, Western blot of cytosolic and membrane fractions; type: cell-based, rat; conditions: leptin-1 5 μM 3 h; insulin 100 nM 20 min; vs vehicle-treated control
Procedure: Separation of cytosolic and membrane fraction was performed according to the protocol mentioned earlier ([34]). In brief, the harvested cells were resuspended in membrane fractionation buffer ([40]) and kept for 1 h with regular tapping. Cellular debris were removed by centrifugation at 800g for 10 min, and the supernatant was collected in fresh micro centrifuge tube, which contains the cytosolic and crude membrane fractions. Crude membrane and cytosolic fraction were separated by centrifugation at 12000 rpm for 10 min at 4 °C. The crude membrane pellet was resuspended in radioimmunoprecipitation assay lysis buffer to elute out membrane proteins and then centrifuged at 15000 rpm for 15 min. Whole process was performed on ice. Both the samples were than resolved on 10% SDS-PAGE ([38], [40]).
In order to examine the peptide-induced activation of a protein, related to a signaling event, we have assessed its expression in the peptide-treated L6 myotubes with respect to the myotubes, not treated with the peptide and myotubes-treated with a positive control. For this purpose, we have performed Western blotting experiments by usual procedure after resolving the proteins of the whole cell lysates of L6 myotubes, treated at different experimental conditions by SDS-PAGE. […]

GLUT4 [7] = assay: GLUT4 expression, Western blot; type: cell-based, rat; conditions: peptides 5 μM 3 h; insulin 100 nM 30 min; vs vehicle; beta-actin loading control
Excerpt: as §1

L6 cells = conditions: peptide up to 100 μM, 2 h; MTT, absorbance 540 nm
Procedure: Biological activity and toxicity of the purified peptides were studied on rat skeletal muscle cell line L6. L6 cell line was seeded, grown, and differentiated according to the protocols described earlier ([34]). In brief, cells were grown in low glucose-DMEM and differentiated using DMEM containing 2% fetal bovine serum supplemented 1% Antibiotic-Antimycotic ([38], [39]).

BALB/c mice = assay: In vivo acute toxicity and survival study; design: species or system mouse
Procedure: In vivo toxicity and survival study with the peptides were performed in BALB/c mice. Mice were divided into five groups, each group with five number of mice. One group was kept as control group and injected only with vehicle (Water). […] Dosing was done through intraperitoneal route and only a single dosing was performed. The mice were kept under observation for a week after peptide injection. After 1 week of observation, survival of mice in all groups was recorded. At seventh day, blood samples were collected from each mice in all the groups, and the serum was isolated to estimate aspartate transaminase and alanine transaminase level ([43]).

[8] = 10, 20, 40 and 80 mg/kg, day 7, comparable to vehicle-treated control

CN(CCOc1ccc(CC2SC(=O)NC2=O)cc1)c1ccccn1 (centres unmarked) [rosiglitazone]
mitochondrial biogenesis (Mitotracker red fluorescence) (L6 myotubes [1]): significantly increased mitochondrial biogenesis
ATP production (L6 myotubes [2]): 13 µM

CN(C)C(=N)N=C(N)N [metformin]
phosphorylation of S80 of ACC2 after dorsomorphin pretreatment ([3]; dorsomorphin 1 h, then leptin-1 5 μM 3 h or metformin): prevented
phosphorylation of S80 residue of ACC2 ([3]; peptides 5 μM 3 h, metformin positive control): significantly increased S80 residue phosphorylation
fasting blood glucose (FBG) (db/db mice): reduced FBG
glucose tolerance (OGTT) (db/db mice; oral glucose 3 g/kg): improved glucose tolerance
inhibition of IL-6 production (IL-6): 52%
AMPK Thr-172 phosphorylation (AMPK protein): 2 fold
increase in serum adiponectin production (adiponectin): 2.6 fold
inhibition of TNFα production (TNFα): 44%

insulin: human insulin (Sigma-Aldrich), positive control at 100 nM
GLUT4 translocation to PM (ICC, green fluorescence on PM) (GLUT4 [4]): appreciable increase in green fluorescence
IRS1 activation and expression (IRS1): 1.6 fold
glucose uptake, positive control (L6 myotubes [5]; insulin 100 nM, Fig. 2D): significantly increased glucose uptake
glucose uptake without inhibitor (L6 myotubes [5]; leptin-1 5 μM 3 h, insulin 100 nM 30 min, Fig. 5C): 2.4 fold
AKT activation (p-AKT) (AKT): 4.2 fold
GLUT4 translocation to PM (GLUT4 [6]): 4 fold
GLUT4 expression (GLUT4 [7]): 1.6 fold

VVALSRLQGSLQDMLW-NH2 [leptin-2]
viability of L6 cells (L6 cells): ~95%

KQKVTGLDFIPGLHPIL-NH2 [leptin-1]
survival (BALB/c mice; 10, 20, 40 and 80 mg/kg body weight, intraperitoneal, 7 days): 100%
serum alanine transaminase level (BALB/c mice; [8]): normal
serum aspartate transaminase level (BALB/c mice; [8]): normal
body weight (BALB/c mice; all peptide-treated groups, until end of 7 days): stable body weights
viability of L6 cells (L6 cells): ~95%
